Data on three molecules can be found in patent publication US20260297542A1, “HERBICIDE RESISTANT PLANTS” (SYNGENTA CROP PROTECTION AG, priority 2023, published 2026).

Common to all, as to test: E. coli hemG growth inhibition by herbicide, AtPPO1 variant
Format in all cases: cell-based
Settings in all cases: read-out: percentage growth inhibition

The target of one assay is T1, AtPPO1 C516Q (Arabidopsis thaliana, UniProt P55826, C516Q).
T1 construct: expressed in transfected cells; host or cells: E. coli BL21(DE3) hemG, pET24a plasmid
T1 sequence (P55826 35-537 C516Q): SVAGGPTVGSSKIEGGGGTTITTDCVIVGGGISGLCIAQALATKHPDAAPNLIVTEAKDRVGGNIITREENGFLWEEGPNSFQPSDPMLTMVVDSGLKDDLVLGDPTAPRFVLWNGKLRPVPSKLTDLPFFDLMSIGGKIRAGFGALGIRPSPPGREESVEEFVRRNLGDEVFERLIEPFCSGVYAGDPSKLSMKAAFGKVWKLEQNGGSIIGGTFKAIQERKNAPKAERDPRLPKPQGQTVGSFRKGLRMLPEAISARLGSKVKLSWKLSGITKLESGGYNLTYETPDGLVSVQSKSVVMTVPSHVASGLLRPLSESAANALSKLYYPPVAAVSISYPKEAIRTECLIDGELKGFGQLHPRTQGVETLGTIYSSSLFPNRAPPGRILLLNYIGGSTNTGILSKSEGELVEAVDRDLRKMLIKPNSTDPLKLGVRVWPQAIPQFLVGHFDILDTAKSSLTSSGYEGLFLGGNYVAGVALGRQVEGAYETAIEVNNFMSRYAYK
The source says:
(§1) A pET24a plasmid containing a DNA sequence encoding a variant of PPO1 derived from Arabidopsis thaliana (AtPPO1), codon-optimised for expression in E. coli and under control of a T7 promoter, was synthesised by Twist Bioscience (SEQ ID NO:3). This plasmid was used as the basis of a Site Saturation Variant Library (SSVL) that substituted the codons at 352 amino acid positions for codons that encoded one of the other 19 amino acids, or removed the codon altogether, resulting in a translation product with a deletion at that position.
(§2) The SSVL was batch-transformed by electroporation into an E. coli BL21(DE3) hemG strain with the hemG gene replaced by CmR conferring resistance to chloramphenicol and spread onto LA supplemented with 50 μg/mL kanamycin, 25 μg/mL chloramphenicol and 20 μg/mL hematin. Each batch consisted of all the plasmids that contained variants at two sites.
(§3) Colonies from batch transformations were inoculated into 500 μL of Terrific broth supplemented with 50 μg/mL kanamycin, 25 μg/mL chloramphenicol and 20 μg/mL hematin in 96-deepwell blocks. Cultures were grown for 24 hours at 37° C. with shaking at 250 rpm.
(§4) Overnight cultures were centrifuged and the cell pellets resuspended with 500 μL of Terrific broth. The resuspended cultures were used at a ratio of 1:100 to inoculate a fresh 96-deepwell block containing 500 μL of Terrific broth supplemented with 0.1 mM IPTG, 50 μg/mL kanamycin, 25 μg/mL chloramphenicol and 6.25 ppm of herbicide […] or E or 0.78 ppm herbicide B or DMSO. Assay cultures were grown for 24 hours at 37° C. with shaking at 250 rpm with the OD600 being measured at 24 hours post inoculation. Strains that grew in both DMSO and herbicide were determined to be herbicide tolerant with the percentage of growth inhibition being calculated as below: […]

Another assay deals with T2, AtPPO1 P413G (Arabidopsis thaliana, UniProt P55826, P413G).
T2 construct: expressed in transfected cells; host or cells: E. coli BL21(DE3) hemG (pET24a, T7 promoter)
T2 sequence (P55826 35-537 P413G): T1 sequence (P55826 35-537 C516Q) with P379G, Q482C
From the text: as §1, §2, §3, §4

Another assay deals with T3, AtPPO1 V127L (Arabidopsis thaliana, UniProt P55826, V127L).
T3 construct: expressed in transfected cells; host or cells: E. coli BL21(DE3) hemG (hemG replaced by CmR), pET24a plasmid
T3 sequence (P55826 35-537 V127L): T1 sequence (P55826 35-537 C516Q) with V93L, Q482C
From the text: as §1, §2, §3, §4

The next assay deals with T4, AtPPO1 Y361C (Arabidopsis thaliana, UniProt P55826, Y361C).
T4 construct: expressed in transfected cells; host or cells: E. coli BL21(DE3) hemG, pET24a plasmid
T4 sequence (P55826 35-537 Y361C): T1 sequence (P55826 35-537 C516Q) with Y327C, Q482C
From the text: as §1, §2, §3, §4

Residue numbers refer to the chain shown, from its start.

One may read the inhibition as the percentage by which the read-out fell short of the control. With `C#CCN1C(=O)C(F)(F)Oc2cc(F)c(-n3c(=O)n(C)c(=S)n(C)c3=O)cc21` [Herbicide B, trifludimoxazin], the inhibition at 0.78 ppm at AtPPO1 C516Q stood at 18%; at AtPPO1 P413G, 16%; at AtPPO1 V127L, 31%; at AtPPO1 Y361C, 36%.
In the case of `CCOC(=O)[C@]1(C)CC(c2cc(-n3c(=O)n(C)c(=S)n(C)c3=O)c(F)cc2Cl)=NO1` [Herbicide D, ethyl (5S)-3-[2-chloro-5-(3,5-dimethyl-2,6-dioxo-4-thioxo-1,3,5-triazinan-1-yl)-4-fluoro-phenyl]-5-methyl-4H-isoxazole-5-carboxylate], the inhibition at 6.25 ppm at AtPPO1 C516Q is 28%; at AtPPO1 P413G, 32%; on AtPPO1 V127L, 29%; on AtPPO1 Y361C, 15%.
On the same counts, the results for `CC(C)N(C)S(=O)(=O)NC(=O)c1cc(-n2c(=O)cc(C(F)(F)F)n(C)c2=O)c(F)cc1Cl` [Herbicide E, saflufenacil] are 51%, 59%, 65% and 35%.
